Test results taken from patent US20030157516A1, “G protein coupled receptor” (priority 2000, published 2003).
Several values for one entry are separate records, joined by “and”; a condition that tells them apart may be missing. Equal entries are not always repeated. Where two headings read alike, the source gives them in different places.

Columns and labels:
[1] = molecular target: T1, adenine binding rat receptor (Rattus norvegicus, UniProt Q7TN49); experiment: [35S]GTPγS binding on CHO membranes transiently transfected; assay type: biochemical; details: for % stim.: increase above basal
T1 construct: expressed in transfected cells; host or cells: CHO cells, transient, lipofectamine PLUS
T1 sequence (Q7TN49 1-304): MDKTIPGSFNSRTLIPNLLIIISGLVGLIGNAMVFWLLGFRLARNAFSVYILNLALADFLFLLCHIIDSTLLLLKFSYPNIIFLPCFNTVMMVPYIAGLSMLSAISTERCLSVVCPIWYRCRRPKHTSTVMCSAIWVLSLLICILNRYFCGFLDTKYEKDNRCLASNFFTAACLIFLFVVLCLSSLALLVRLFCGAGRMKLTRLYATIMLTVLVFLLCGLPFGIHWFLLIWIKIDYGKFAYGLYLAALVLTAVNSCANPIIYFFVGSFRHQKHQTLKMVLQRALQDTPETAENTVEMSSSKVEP
Experimental: a) Methods—Determination of [^35S ]GTPγS binding to the G-proteins was carried out according to a modified procedure of Lazareno (Methods Mol. Biol., 83:107-116, 1997). These experiments were performed for a first functional evaluation of the receptor on the level of a membrane preparation.
The assay mixture contained 10 and 35 μg of membrane protein for the transfected and wild type CHO cells, respectively.
For testing agonistic activity, 175 μl of diluted membranes was pre-incubated in the buffer described above together with 25 μl of buffer and 25 μl of varying concentrations of the compound in a total volume of 225 μl. After a 20 minute pre-incubation period at 30° C., 25 μl of [^35S]GTPγS was added to a final concentration of 0.25 nM and the assay mixtures were further incubated for 20 minutes at 30° C. Bound and free [^35S]GTPγS were separated by rapid filtration over an UniFilter™-96, GF/B™ under reduced pressure using Filtermate 196 filtration (Packard Company (Netherlands). The amount of bound radioactivity on the filter unit was determined after drying of the filters and scintillant addition (Microscint-O; Packard Company) by liquid scintillation counting.
Basal [^35S]GTPγS binding was measured in absence of compounds. Stimulation by agonist was calculated as the percentage increase above basal levels. The sigmoid agonist concentration-response curves were analyzed by non-linear regression using the GraphPad Prism program. The different concentration points were run in duplicates and the reported data were retrieved from independent experiments.

wild type CHO cells [2] = experiment: [3H]adenine competition binding on wild type CHO membranes; details: 15 nM [3H]adenine
Experimental: The membranes were prepared as total particulate fractions. […] The culturing medium was removed and the cells were washed twice with ice cold phosphate buffered saline (PBS without Ca^2+ and Mg^2+), scraped from the plates in 50 mM Tris-HCl buffer, pH 7.4, and collected by centrifugation (10 minutes at 16,000 RPM at 4° C.). The cell pellet was re-suspended in hypotonic 5 mM Tris-HCl buffer, pH 7.4, and homogenized with an Ultra Turrax homogenizer (Janker Kunkel, Germany). The homogenate was centrifuged at 18,000 RPM for 20 minutes at 4° C. The final pellet was re-suspended in 50 mM Tris-HCl buffer, pH 7.4 and stored in aliquots at −70° C. A protein determination was performed using the Bradford protein assay (Biorad, Germany) using bovine serum albumin (BSA) as standard.
Membranes were thawed on ice and diluted in 50 mM HEPES buffer, pH 7.4 supplemented with 10 mM MgCl2 and 1 mM EGTA. […] Both assays were carried out in a final volume of 500 μl, using 18 μg of membrane protein for the transfected CHO cells and 30 μg of membrane protein for the wild type CHO cells for the saturation binding. For competition binding experiments, 15 and 50 μg of membrane protein was used for the transfected and wild type cells, respectively. The reaction was terminated by rapid filtration through Whatman GF/B filters using a Brandel multi-channel cell harvester (96 wells). The filters were washed three times with 3 ml ice cold 50 mM HEPES buffer, pH 7.4, transferred to liquid scintillation vials and 3 ml of scintillation fluid (Ultima Gold MV, Packard, Netherlands) was added. Samples were counted in a β-scintillation counter after at least 6 hours to permit the glass fiber filters to become uniformly translucent.

wild type CHO cells [3] = experiment: [35S]GTPγS binding on wild type CHO membranes; assay type: biochemical
Experimental: a) Methods—Determination of [^35S ]GTPγS binding to the G-proteins was carried out according to a modified procedure of Lazareno (Methods Mol. Biol., 83:107-116, 1997). These experiments were performed for a first functional evaluation of the receptor on the level of a membrane preparation. […] For testing agonistic activity, 175 μl of diluted membranes was pre-incubated in the buffer described above together with 25 μl of buffer and 25 μl of varying concentrations of the compound in a total volume of 225 μl. After a 20 minute pre-incubation period at 30° C., 25 μl of [^35S]GTPγS was added to a final concentration of 0.25 nM and the assay mixtures were further incubated for 20 minutes at 30° C. […] The amount of bound radioactivity on the filter unit was determined after drying of the filters and scintillant addition (Microscint-O; Packard Company) by liquid scintillation counting. Basal [^35S]GTPγS binding was measured in absence of compounds. Stimulation by agonist was calculated as the percentage increase above basal levels. The sigmoid agonist concentration-response curves were analyzed by non-linear regression using the GraphPad Prism program. The different concentration points were run in duplicates and the reported data were retrieved from independent experiments.

[4] = transiently transfected cells, mean of n experiments
[5] = transiently transfected cells, single experiments
[6] = transiently transfected cells, single experiments, read-out: pEC50 (converted)
[7] = transiently transfected CHO membranes

| EC50 ([1]; transiently transfected CHO membranes, read-out: mean EC50) [µM] | % stim. [1, 4] [%] | % stim. ([1]; transiently transfected cells, mean of n experiments, listed as adenine) [%] | % stim. [1, 5] | EC50 [1, 6] | pEC50 [1, 4] | EC50 ([1]; transiently transfected cells, mean of n experiments, read-out: pEC50 (converted)) [µM] | SMILES | Ki (wild type CHO cells [2]; mean of n experiments) [µM] | pIC50 (wild type CHO cells [2]; mean of n experiments) | % stim. (wild type CHO cells [3]; mean of n experiments) [%] | % stim. (wild type CHO cells [3]; single experiments) [%] | pEC50 (wild type CHO cells [3]; single experiments) | stimulation of the receptor ([35S]GTPγS binding) [1, 7] | pIC50 (wild type CHO cells [2]; single experiments) |
| --- | --- | --- | --- | --- | --- | --- | --- | --- | --- | --- | --- | --- | --- | --- |
| 0.112 | 148 | 150 | 177% and 199% and 106% and 111% | 0.0955 µM and 0.115 µM and 0.132 µM | – | – | Nc1ncnc2nc[nH]c12 [Adenine, adenine] | 0.085 | 6.87 | 0 | 0 | <5 | – | – |
| – | 95 | – | – | – | 4.35 | – | Nc1ncnc2c1ncn2[C@@H]1O[C@H](COP(=O)(O)O)[C@@H](O)[C@H]1O [AMP] | – | <4 | 0 | 0 | <4 | stimulated the receptor partially with a much lower potency | <4 |
| – | 129 | – | 90% and 135% and 161% | 16.2 µM and 12 µM and 17.8 µM | – | 15.1 | Cn1cnc2ncnc-2c1N [1-Methyladenine] | – | <4 | 0 | 0 | <4 | stimulated the receptor partially with a much lower potency | <4 |
